Measurements from publication PMC6506541, “A Bio-inspired Hypoxia Sensor using HIF1a-Oxygen-Dependent Degradation Domain” (Scientific Reports, 2019).

What was measured:
Assay type in all cases: cell-based, Human
[1] = test system: HA-tagged ubiquitin; test: Immunoprecipitation of HA-tagged ubiquitinated sensor; conditions: MDA-MB 231 cells transfected with pcDNA3-Ub-HA; 5 h with sensor; anti-HA immunoprecipitation; IVIS fluorescence
Procedure: MDA-MB 231 cells were seeded at a density of 2·10^5 cells per well in 6-multiwell plates twenty-four hours prior transfection. Each well was transfected with 2 μg of either pcDNA3-Ub-HA or empty vector pcDNA3 (Invitrogen) using Superfect (Qiagen) as transfection reagent. Twenty-four hours upon transfection culture medium was removed, cells were washed carefully with phosphate buffered saline (PBS; Sigma-Aldrich) and fresh culture medium containing the peptidic sensor 1 was added onto the cells. PBS was used as mock treatment. Five hours upon treatment with the sensor, cells were lysed in native immunoprecipitation buffer, 20 mM Tris·HCl pH 8, 137 mM NaCl,10% glycerol,1% Nonidet P-40 (NP-40), 2 mM EDTA, containing the protease inhibitors sodium orthovanadate (1 mM), PMSF (2 mM) and aprotinin (1 μg/mL) (Sigma-Aldrich). Each immunoprecipitation contained 600 μg of whole protein extract and were incubated overnight with 5 μg of anti-hemagglutinin HA.11 (Clone 16B12) antibody (Abcam) at 4 °C. Equal amounts of rabbit immunoglobulins (Sigma-Aldrich) were used as control. HA-tagged ubiquitins were immunoprecipitated using Protein G-coupled agarose (Santa Cruz), subsequently washed with immunoprecipitation buffer and eluted under native conditions. Fluorescence images were taken using an IVIS Spectrum system (Perkin-Elmer).

[2] = test system: proteasome; test: Sensor degradation under proteasome inhibitor MG-132; conditions: MDA-MB 231 cells; MG-132 20 μM or 40 μM, 6 h, after pre-treatment with probe
Procedure: (§1) Human breast cancer cells MDA-MB 231 were maintained at 37 °C and 5% CO2 in RPMI-1640 (Sigma–Aldrich), supplemented with 10% fetal bovine serum (Fisher Scientific). Cells were seeded at a density of 2·10^5 cells per well in 6-multiwell plates 24 h prior treatment. For hypoxia induction, they were treated with either CoCl2 (Sigma–Aldrich) at a final concentration of 500 μM, or L-Mimosine (Sigma–Aldrich) at a final concentration of 800 μM. Treatment with each peptidic sensor (500 ng/mL) was carried out in the presence of the aforementioned inhibitors. After three hours of incubation, supernatants containing the probes and either CoCl2 or L-Mimosine were aspirated, cells were washed once with PBS 1X and fresh medium, containing again either CoCl2 or L-Mimosine, was added to the cells for an extended incubation of three hours. Treatment with proteasome inhibitor MG-132 (Sigma-Aldrich) was carried out for 6 hours at final concentrations of either 20 μM or 40 μM, upon pre-treatment of the cells with the probes, as described previously. Fluorescent probes internalization was quantified using ImageJ (NIH). Quantified fluorescence was expressed as values of corrected total cell fluorescence (CTCF), which was calculated using the formula CTCF = integrated density – (area of selected cell × mean fluorescence of background readings)[44].

[3] = test system: MDA-MB 231 cells; test: Sensor stabilization by hypoxia-mimetic agents, fluorescence microscopy; conditions: sensor 500 ng/mL, CoCl2 500 μM or L-Mimosine 800 μM vs vehicle, 3 h incubation, wash, further 3 h
Procedure: as §1

LDLEMLAPYIPMDDDFQL [compound 1, 5(6)-ROX-labelled HIF-1α ODD domain peptide (Leu557-Leu574) linked to octa-arginine by O2Oc PEG linkers]
ubiquitination of sensor (enrichment by HA immunoprecipitation) [1]: degradation of the sensor is ubiquitin proteasome-regulated | effect of proteasome inhibitor MG-132 on degradation of sensor fluorescent signal [2]: dose-dependent effect on proteasome degradation of fluorescent signal | stabilization of sensor fluorescence (inhibition of sensor degradation) by hypoxia mimetics [3]: stabilized in the presence of both molecules that mimic hypoxia
